# Experimental data: ChEMBL document CHEMBL1145534 (2007)
# What was measured:
# Assay type in all cases: functional
# [1] = test system: Corynebacterium pseudodiphtheriticum; assay: Antimicrobial activity against Corynebacterium pseudodiphtheriticum at <= 0.06 ug/ml by broth microdilution method
# [2] = test system: Streptococcus intermedius; assay: Antimicrobial activity against viridans group Streptococcus intermedius by broth microdilution method
# Enterococcus durans [3] = assay: Antimicrobial activity against Enterococcus durans at 1 ug/ml by broth microdilution method
# Streptococcus sanguinis [4] = assay: Antimicrobial activity against viridans group Streptococcus sanguinis at 2 ug/ml by broth microdilution method
# Micrococcus luteus [5] = assay: Antimicrobial activity against Micrococcus luteus at <= 0.06 ug/ml by broth microdilution method
# Corynebacterium sp. = assay: Antimicrobial activity against Corynebacterium spp. at 0.25 ug/ml by broth microdilution method
# Enterococcus raffinosus [6] = assay: Antimicrobial activity against Enterococcus raffinosus at 0.12 ug/ml by broth microdilution method
# [7] = test system: Streptococcus constellatus; assay: Antimicrobial activity against viridans group Streptococcus constellatus at 0.5 ug/ml by broth microdilution method
# [8] = test system: Enterococcus casseliflavus; assay: Antimicrobial activity against Enterococcus casseliflavus by broth microdilution method
# Enterococcus avium = assay: Antimicrobial activity against Enterococcus avium at 0.12 ug/ml by broth microdilution method
# Enterococcus hirae [9] = assay: Antimicrobial activity against Enterococcus hirae at 0.5 ug/ml by broth microdilution method
# [10] = test system: Streptococcus intermedius; assay: Antimicrobial activity against viridans group Streptococcus intermedius at 0.5 ug/ml by broth microdilution method
# Streptococcus salivarius [11] = assay: Antimicrobial activity against viridans group Streptococcus salivarius at <= 0.06 ug/ml by broth microdilution method
# Bacillus sp. [12] = assay: Antimicrobial activity against Bacillus spp. at <= 0.06 ug/ml by broth microdilution method
# Enterococcus durans [13] = assay: Antimicrobial activity against Enterococcus durans at 2 ug/ml by broth microdilution method
# Streptococcus [14] = assay: Antimicrobial activity against beta hemolytic Streptococci group G at 0.25 ug/ml by broth microdilution method
# Listeria monocytogenes [15] = assay: Antimicrobial activity against Listeria monocytogenes at 0.25 ug/ml by broth microdilution method
# [16] = test system: Corynebacterium pseudodiphtheriticum; assay: Antimicrobial activity against Corynebacterium pseudodiphtheriticum at 0.12 ug/ml by broth microdilution method
# Bacillus sp. [17] = assay: Antimicrobial activity against Bacillus spp. by broth microdilution method; details: Bacillus sp. (in: firmicutes)
# Streptococcus anginosus [18] = assay: Antimicrobial activity against viridans group Streptococcus anginosus at 0.12 ug/ml by broth microdilution method
# Rothia mucilaginosa [19] = assay: Antimicrobial activity against Rothia mucilaginosa at 0.12 ug/ml by broth microdilution method
# Bacillus cereus [20] = assay: Antimicrobial activity against Bacillus cereus at 0.12 ug/ml by broth microdilution method
# Streptococcus [21] = assay: Antimicrobial activity against beta hemolytic Streptococcus group C at 0.12 ug/ml by broth microdilution method
# Rothia mucilaginosa [22] = assay: Antimicrobial activity against Rothia mucilaginosa at <= 0.06 ug/ml by broth microdilution method
# Enterococcus gallinarum [23] = assay: Antimicrobial activity against Enterococcus gallinarum at 0.12 ug/ml by broth microdilution method
# Listeria monocytogenes [24] = assay: Antimicrobial activity against Listeria monocytogenes at <= 0.06 ug/ml by broth microdilution method
# Streptococcus salivarius [25] = assay: Antimicrobial activity against viridans group Streptococcus salivarius at 0.12 ug/ml by broth microdilution method
# Streptococcus oralis [26] = assay: Antimicrobial activity against viridans group Streptococcus oralis at 2 ug/ml by broth microdilution method
# Listeria monocytogenes [27] = assay: Antimicrobial activity against Listeria monocytogenes by broth microdilution method
# [28] = test system: Streptococcus parasanguinis; assay: Antimicrobial activity against viridans group Streptococcus parasanguis at <= 0.06 ug/ml by broth microdilution method
# Streptococcus equinus [29] = assay: Antimicrobial activity against viridans group Streptococcus bovis at 2 ug/ml by broth microdilution method
# Streptococcus salivarius [30] = assay: Antimicrobial activity against viridans group Streptococcus salivarius at 2 ug/ml by broth microdilution method
# [31] = test system: Corynebacterium amycolatum; assay: Antimicrobial activity against Corynebacterium amycolatum at 0.12 ug/ml by broth microdilution method
# [32] = test system: Streptococcus constellatus; assay: Antimicrobial activity against viridans group Streptococcus constellatus at 0.25 ug/ml by broth microdilution method
# [33] = test system: Streptococcus parasanguinis; assay: Antimicrobial activity against viridans group Streptococcus parasanguis at 0.12 ug/ml by broth microdilution method
# Streptococcus mutans [34] = assay: Antimicrobial activity against viridans group Streptococcus mutans at 0.12 ug/ml by broth microdilution method
# Streptococcus sanguinis [35] = assay: Antimicrobial activity against viridans group Streptococcus sanguinis at 0.25 ug/ml by broth microdilution method
# Streptococcus oralis [36] = assay: Antimicrobial activity against viridans group Streptococcus oralis with G2576T rRNA mutation at 4 ug/ml by broth microdilution method
# Corynebacterium jeikeium = assay: Antimicrobial activity against Corynebacterium jeikeium at 0.12 ug/ml by broth microdilution method
# Enterococcus raffinosus [37] = assay: Antimicrobial activity against Enterococcus raffinosus at 2 ug/ml by broth microdilution method
# [38] = test system: Enterococcus casseliflavus; assay: Antimicrobial activity against Enterococcus casseliflavus at 0.25 ug/ml by broth microdilution method
# Streptococcus mutans [39] = assay: Antimicrobial activity against viridans group Streptococcus mutans at <= 0.06 ug/ml by broth microdilution method
# Micrococcus luteus [40] = assay: Antimicrobial activity against Micrococcus luteus at 0.12 ug/ml by broth microdilution method
# Micrococcus luteus [41] = assay: Antimicrobial activity against Micrococcus luteus at 0.25 ug/ml by broth microdilution method
# Enterococcus hirae [42] = assay: Antimicrobial activity against Enterococcus hirae at <= 0.06 ug/ml by broth microdilution method
# [43] = test system: Streptococcus vestibularis; assay: Antimicrobial activity against viridans group Streptococcus vestibularis at <= 0.06 ug/ml by broth microdilution method
# Streptococcus [44] = assay: Antimicrobial activity against beta hemolytic Streptococci group G at 0.5 ug/ml by broth microdilution method
# Rothia mucilaginosa [45] = assay: Antimicrobial activity against Rothia mucilaginosa at 0.5 ug/ml by broth microdilution method
# Streptococcus equinus [46] = assay: Antimicrobial activity against viridans group Streptococcus bovis at 0.5 ug/ml by broth microdilution method
# Streptococcus mitis [47] = assay: Antimicrobial activity against viridans group Streptococcus mitis at 0.12 ug/ml by broth microdilution method
# Streptococcus sanguinis [48] = assay: Antimicrobial activity against viridans group Streptococcus sanguinis at <= 0.06 ug/ml by broth microdilution method
# Enterococcus gallinarum [49] = assay: Antimicrobial activity against Enterococcus gallinarum at <= 0.06 ug/ml by broth microdilution method
# Bacillus cereus [50] = assay: Antimicrobial activity against Bacillus cereus by broth microdilution method
# Streptococcus mitis [51] = assay: Antimicrobial activity against viridans group Streptococcus mitis at 0.5 ug/ml by broth microdilution method
# Streptococcus anginosus [52] = assay: Antimicrobial activity against viridans group Streptococcus anginosus at 0.25 ug/ml by broth microdilution method
compound,measurement,setting,value
CC(=O)NC[C@H]1CN(c2ccc(N3CCOCC3)c(F)c2)C(=O)O1 [LINEZOLID],Inhibition,[1],0%
same,MIC50,[2],1 µg/mL
same,MIC90,[2],2 µg/mL
same,inhibition at 1 µg/mL,Enterococcus durans [3],32.7%
same,inhibition at 2 µg/mL,Streptococcus sanguinis [4],100%
same,Inhibition,Micrococcus luteus [5],0%
same,inhibition at 0.25 µg/mL,Corynebacterium sp.,68.2%
same,inhibition at 0.12 µg/mL,Enterococcus raffinosus [6],0%
same,inhibition at 0.5 µg/mL,[7],42.7%
same,MIC50,[8],2 µg/mL
same,MIC90,[8],2 µg/mL
same,inhibition at 0.12 µg/mL,Enterococcus avium,0%
same,inhibition at 0.5 µg/mL,Enterococcus hirae [9],0%
same,inhibition at 0.5 µg/mL,[10],24.2%
same,Inhibition,Streptococcus salivarius [11],0%
same,Inhibition,Bacillus sp. [12],0.7%
same,inhibition at 2 µg/mL,Enterococcus durans [13],100%
same,inhibition at 0.25 µg/mL,Streptococcus [14],0.8%
same,inhibition at 0.25 µg/mL,Listeria monocytogenes [15],0%
same,inhibition at 0.12 µg/mL,[16],0%
same,MIC50,Bacillus sp. [17],1 µg/mL
same,MIC90,Bacillus sp. [17],1 µg/mL
same,inhibition at 0.12 µg/mL,Streptococcus anginosus [18],2.9%
same,inhibition at 0.12 µg/mL,Rothia mucilaginosa [19],5.6%
same,inhibition at 0.12 µg/mL,Bacillus cereus [20],1.7%
same,inhibition at 0.12 µg/mL,Streptococcus [21],3%
same,Inhibition,Rothia mucilaginosa [22],0%
same,inhibition at 0.12 µg/mL,Enterococcus gallinarum [23],0%
same,Inhibition,Listeria monocytogenes [24],0%
same,inhibition at 0.12 µg/mL,Streptococcus salivarius [25],1.1%
same,inhibition at 2 µg/mL,Streptococcus oralis [26],99.3%
same,MIC50,Listeria monocytogenes [27],2 µg/mL
same,MIC90,Listeria monocytogenes [27],2 µg/mL
same,Inhibition,[28],0%
same,inhibition at 2 µg/mL,Streptococcus equinus [29],100%
same,inhibition at 2 µg/mL,Streptococcus salivarius [30],100%
same,inhibition at 0.12 µg/mL,[31],27.3%
same,inhibition at 0.25 µg/mL,[32],12.4%
same,inhibition at 0.12 µg/mL,[33],0%
same,inhibition at 0.12 µg/mL,Streptococcus mutans [34],0%
same,inhibition at 0.25 µg/mL,Streptococcus sanguinis [35],4.2%
same,inhibition at 4 µg/mL,Streptococcus oralis [36],99.3%
same,inhibition at 0.12 µg/mL,Corynebacterium jeikeium,5.1%
same,inhibition at 2 µg/mL,Enterococcus raffinosus [37],100%
same,inhibition at 0.25 µg/mL,[38],0%
same,Inhibition,Streptococcus mutans [39],0%
same,inhibition at 0.12 µg/mL,Micrococcus luteus [40],0%
same,inhibition at 0.25 µg/mL,Micrococcus luteus [41],3.4%
same,Inhibition,Enterococcus hirae [42],0%
same,Inhibition,[43],0%
same,inhibition at 0.5 µg/mL,Streptococcus [44],8.2%
same,inhibition at 0.5 µg/mL,Rothia mucilaginosa [45],83.3%
same,inhibition at 0.5 µg/mL,Streptococcus equinus [46],23.8%
same,inhibition at 0.12 µg/mL,Streptococcus mitis [47],1.2%
same,Inhibition,Streptococcus sanguinis [48],0%
same,Inhibition,Enterococcus gallinarum [49],0%
same,MIC50,Bacillus cereus [50],1 µg/mL
same,MIC90,Bacillus cereus [50],1 µg/mL
same,inhibition at 0.5 µg/mL,Streptococcus mitis [51],33.4%
same,inhibition at 0.25 µg/mL,Streptococcus anginosus [52],7.7%
